*1 amine or outer side, *2 acyl side, *3 side chain or, on linkers, in order; H or OH if unused. The star is where a group is joined. Lys(5-TAMRA) = CN(C)c1ccc2c(-c3ccc(C(=O)NCCCC[C@H](N[*:1])C(=O)[*:2])cc3C(=O)[O-])c3ccc(N(C)C)cc3[o+]c2c1; 5FAM = O=C1OC2(c3ccc(O)cc3Oc3cc(O)ccc32)c2ccc(C(=O)*)cc21
Assays:
Format in all cases: biochemical
Factor XIa [1] = biological target: T1, Factor XIa (Homo sapiens, UniProt P03951); assay: Factor XIa inhibition FLINT assay with fluorophore-quencher peptide substrate 5Fam-[…]-K5Tamra (end point EP or kinetic KIN reads); settings: fit to a substrate inhibition model
T1 sequence (P03951 388-625 limits assumed): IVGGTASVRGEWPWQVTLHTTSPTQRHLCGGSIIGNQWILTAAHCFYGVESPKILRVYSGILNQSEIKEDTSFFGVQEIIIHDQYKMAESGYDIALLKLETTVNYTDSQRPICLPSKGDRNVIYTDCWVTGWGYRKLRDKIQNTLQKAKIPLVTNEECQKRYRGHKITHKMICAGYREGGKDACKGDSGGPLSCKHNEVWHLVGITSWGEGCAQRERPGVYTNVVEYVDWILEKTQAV
T1 sequence (P03951 19-387 partner limits assumed): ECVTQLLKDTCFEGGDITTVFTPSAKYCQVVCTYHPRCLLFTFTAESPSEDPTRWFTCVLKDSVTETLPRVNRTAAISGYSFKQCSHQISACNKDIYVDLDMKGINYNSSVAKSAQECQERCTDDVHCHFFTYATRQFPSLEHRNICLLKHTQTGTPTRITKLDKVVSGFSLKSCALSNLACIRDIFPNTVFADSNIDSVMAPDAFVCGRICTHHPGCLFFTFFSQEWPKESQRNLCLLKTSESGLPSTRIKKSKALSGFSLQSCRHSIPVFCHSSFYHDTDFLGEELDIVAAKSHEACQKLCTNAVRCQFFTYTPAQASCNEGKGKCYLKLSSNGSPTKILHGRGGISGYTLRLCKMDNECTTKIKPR

Factor XIa [2] = biological target: T1, Factor XIa; assay: as above; settings: end point read at 30 min; read-out: FXIa (EP) IC50
Source text: Factor XIa inhibition assay utilizing a fluorophore-quencher pair peptide substrate A fluorescence intensity (FLINT) based assay was used to monitor inhibition of Factor XIa. The peptide substrate, 5Fam-[…]-K5Tamra (purchased from New England Peptide) was chosen based on the FXI sequence. Conversion of zymogen FXI to its activated form, FXIa, occurs by proteolytic cleavage by […] at two sites, Arg146 and Arg180. The custom peptide used in this assay was based on the Arg146 cleavage site of FXI. The peptide substrate was designed with a fluorophore-quencher pair, where the fluorescence is quenched until FXIa cleaves the 8-mer peptide after the Arg residue.
Test compound(s) were run in an 11-point, 3-fold serial dilution with a final top compound concentration of 100 nM. Final DMSO in assay was 2%. FXIa was preincubated with compound for 30-minutes and then substrate was added to initiate the reaction. The assay was run with either end point (EP) reads at 30 min or kinetic (KIN) reads at 5 min intervals over 30 minutes. […] More specifically, the assay was run as follows: • 100 nL of 0.01 mM test compound was dispensed into black 384-well non-binding Greiner BioOne 784900 plate for 0.1 μM final concentration; • 5 μL of 1× assay buffer was dispensed to column 24 (low control) and 5 μL 2× Factor XIa solution was dispensed to columns 1-23 (column 23 high control); • the plate was centrifuged with a “cover” plate at 500 rpm for 1 min • the plate was pre-incubated for 30 minutes at room temperature with plate covered; • 5 μL of 2×5Fam-[…]-K5Tamra peptide substrate was dispensed into the entire plate, columns 1-24; • the plate was centrifuged with a “cover” plate at 500 rpm for 1 min; • the plate was read monitoring fluorescence intensity on the BMG PHERAStar at room temperature, using fluorescence module 485 nm/520 nm.
Percent inhibition (IC50) curves were generated per compound tested, and data was analyzed using a 4-parameter logistic fit using GeneData Screener. The relative fluorescence unit (RFU) values were normalized to percent inhibition using the following equation: % inhibition=((HC−LC)−(compound−LC)/(HC−LC))*100
An 11-point dose response curve for the test compound(s) was generated using GENDATA to determine IC50 value based on the following equation: Y=Bottom+(Top−Bottom)/(1+10^((log IC50−X)*HillSlope))
Results listed in columns with […] designation were measured using endpoint reads where a single fluorescence reading was measured for each well at a 30 min timepoint.

human plasma kallikrein = human plasma kallikrein (Homo sapiens, UniProt P03952); assay: Kallikrein inhibition FLINT assay with quenched AMC peptide substrate Z-Gly-Pro-Arg-AMC (end point EP or kinetic KIN reads); settings: end point read at 30 min; read-out: Kallikrein (EP) IC50
Chain of human plasma kallikrein (P03952 391-638 limits assumed): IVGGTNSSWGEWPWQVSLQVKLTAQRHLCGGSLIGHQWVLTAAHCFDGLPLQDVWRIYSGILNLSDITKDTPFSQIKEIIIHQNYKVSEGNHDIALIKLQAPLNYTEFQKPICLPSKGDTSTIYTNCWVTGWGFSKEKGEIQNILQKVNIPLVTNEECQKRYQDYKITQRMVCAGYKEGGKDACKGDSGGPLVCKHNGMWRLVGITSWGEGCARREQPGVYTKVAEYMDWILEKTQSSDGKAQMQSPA
Chain of human plasma kallikrein (P03952 20-390 partner limits assumed): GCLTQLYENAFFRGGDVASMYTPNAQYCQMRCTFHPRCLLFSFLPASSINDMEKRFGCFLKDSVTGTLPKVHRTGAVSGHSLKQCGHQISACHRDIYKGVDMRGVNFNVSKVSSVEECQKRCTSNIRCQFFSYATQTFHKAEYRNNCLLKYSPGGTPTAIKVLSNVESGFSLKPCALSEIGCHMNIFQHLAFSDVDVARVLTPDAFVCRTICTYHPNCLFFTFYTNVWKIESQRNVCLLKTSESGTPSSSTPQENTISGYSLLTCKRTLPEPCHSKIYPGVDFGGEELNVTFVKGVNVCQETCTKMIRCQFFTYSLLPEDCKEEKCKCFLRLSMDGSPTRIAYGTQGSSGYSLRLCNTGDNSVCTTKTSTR
How it was run: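 Enzyme and compound were preincubated 30 min before adding 50 μM AMC substrate in pH 7.5 Tris/NaCl/CaCl2/BSA/CHAPS buffer. AMC release was read at 30 min endpoint or every 5 min.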

Compound	Km (Factor XIa [1]; peptide substrate of FXIa) [µM]	kcat (Factor XIa [1]; peptide substrate of FXIa) [s⁻¹]	Ki (Factor XIa [1]; substrate inhibition constant) [nM]	IC50 (Factor XIa [2]) [nM]	IC50 (human plasma kallikrein) [nM]
5Fam-KLTRAETV-K5Tamra (5FAM-KLTRAETV-{Lys(5-TAMRA)}; SMILES CC(C)C[C@H](NC(=O)[C@H](CCCCN)NC(=O)c1ccc2c(c1)C(=O)OC21c2ccc(O)cc2Oc2cc(O)ccc21)C(=O)N[C@H](C(=O)N[C@@H](CCCNC(=N)N)C(=O)N[C@@H](C)C(=O)N[C@@H](CCC(=O)O)C(=O)N[C@H](C(=O)N[C@H](C(=O)N[C@@H](CCCCNC(=O)c1ccc(-c2c3ccc(N(C)C)cc3[o+]c3cc(N(C)C)ccc23)c(C(=O)[O-])c1)C(=O)O)C(C)C)[C@@H](C)O)[C@@H](C)O) ["The peptide substrate ; (purchased from New England Peptide)", "designed with a fluorophore-quencher pair", based on the Arg146 cleavage site of FXI]	12.4	0.86	61600	–	–
CN1Cc2cc(-c3cnn(C(CC4CC4)c4ccc(-c5cc(Cl)ccc5-n5cnnn5)c[n+]4[O-])c3)ccc2C1=O (stereo not shown) [Example P12]	–	–	–	71.7	370
CN1CCc2cc(-c3cnn(C(CC4CC4)c4ccc(-c5cc(Cl)ccc5-n5cnnn5)c[n+]4[O-])c3)ccc2C1=O (stereo not shown) [Example P15]	–	–	–	55.6	598
O=C(O)c1ccc(-c2cnn(C(c3cn(-c4ccccc4)nn3)c3ccc(-c4c(-n5cnnn5)ccc(Cl)c4F)c[n+]3[O-])c2)cc1 (stereo not shown) [Example P35]	–	–	–	169	800
CC(C)(C)OCCC(c1ccc(-c2cc(Cl)ccc2-n2cnnn2)c[n+]1[O-])n1cc(-c2ccc(C(=O)O)cc2)cn1 (stereo not shown) [Example P8]	–	–	–	2.7	329
Nc1ccc(-c2cnn(C(CC3CC3)c3ccc(-c4cc(Cl)ccc4-n4cnnn4)c[n+]3[O-])c2)c(Cl)n1 (single isomer, unassigned) [Example P49]	–	–	–	3.4	79.2
[O-][n+]1cc(-c2cc(Cl)ccc2-n2cnnn2)ccc1C(Cc1ccc(F)cc1)n1cc(-c2ccc(F)cc2)cn1 (stereo not shown) [Example P22]	–	–	–	10	44.2
O=C1OCc2cc(-c3cnn(C(CC4CC4)c4ccc(-c5cc(Cl)ccc5-n5cnnn5)c[n+]4[O-])c3)ccc21 (stereo not shown) [Example P16]	–	–	–	56.1	401
Nc1ccc(-c2cnn(C(CC3CC3)c3ccc(-c4c(-n5cnnn5)ccc(Cl)c4F)c[n+]3[O-])c2)cn1 (stereo not shown) [Example P24]	–	–	–	4.9	114
